Assay [1] concerns T1, Dihydroorotate dehydrogenase (quinone), mitochondrial (Plasmodium falciparum (isolate 3D7)), Q08210 [C276A].
T1 sequence (whole entry): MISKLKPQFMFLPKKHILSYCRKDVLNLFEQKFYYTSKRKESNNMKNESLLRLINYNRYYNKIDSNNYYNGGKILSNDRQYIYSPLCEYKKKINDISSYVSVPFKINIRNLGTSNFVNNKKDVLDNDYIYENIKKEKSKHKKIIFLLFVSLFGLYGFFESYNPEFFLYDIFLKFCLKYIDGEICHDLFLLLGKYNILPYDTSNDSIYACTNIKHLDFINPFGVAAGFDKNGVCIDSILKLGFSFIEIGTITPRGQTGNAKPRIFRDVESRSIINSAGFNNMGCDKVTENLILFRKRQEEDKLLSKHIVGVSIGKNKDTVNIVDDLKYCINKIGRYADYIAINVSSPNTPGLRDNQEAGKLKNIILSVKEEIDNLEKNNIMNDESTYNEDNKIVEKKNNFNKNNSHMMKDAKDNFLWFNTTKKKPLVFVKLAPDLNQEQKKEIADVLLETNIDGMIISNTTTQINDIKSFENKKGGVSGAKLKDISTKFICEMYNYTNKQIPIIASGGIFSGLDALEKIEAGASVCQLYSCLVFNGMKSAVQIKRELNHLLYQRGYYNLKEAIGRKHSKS
Nature of the assay: Inhibition of Plasmodium falciparum […] dehydrogenase C276A mutant expressed in Escherichia coli BL21(DE3) using […] as substrate at 100 uM by DCIP-based colorimetric analysis.

The subject of assay [2] is T2, Dihydroorotate dehydrogenase (quinone), mitochondrial (Plasmodium falciparum (isolate 3D7)), Q08210 [C276F].
T2 sequence (whole entry): T1 sequence (whole entry) with A276F
Nature of the assay: Inhibition of Plasmodium falciparum […] dehydrogenase C276F mutant expressed in Escherichia coli BL21(DE3) using […] as substrate at 100 uM by DCIP-based colorimetric analysis.

The species entered for assay [3] is Homo sapiens. Nature of the assay: Ratio of IC50 for human dihydrofolate dehydrogenase Y147C mutant to IC50 for human wild type dihydrofolate dehydrogenase.
For assay [4], the species on record is Homo sapiens. Put plainly: Ratio of IC50 for human dihydrofolate dehydrogenase Y147A mutant to IC50 for human wild type dihydrofolate dehydrogenase.
For assay [5], the system named is T3, Dihydroorotate dehydrogenase (quinone), mitochondrial (Plasmodium falciparum (isolate 3D7)), Q08210 [H185A].
T3 sequence (whole entry): T1 sequence (whole entry) with H185A, A276C
Nature of the assay: Inhibition of Plasmodium falciparum […] dehydrogenase H185A mutant expressed in Escherichia coli BL21(DE3) using […] as substrate at 100 uM by DCIP-based colorimetric analysis.

The test system of assay [6] is T4, Dihydroorotate dehydrogenase (quinone), mitochondrial (Plasmodium falciparum (isolate 3D7)), Q08210 [C276Y].
T4 sequence (whole entry): T1 sequence (whole entry) with A276Y
Nature of the assay: Inhibition of Plasmodium falciparum […] dehydrogenase C276Y mutant expressed in Escherichia coli BL21(DE3) using […] as substrate at 100 uM by DCIP-based colorimetric analysis.

Here are results for one compound from ChEMBL document CHEMBL2177061, “Factors influencing the specificity of inhibitor binding to the human and malaria parasite dihydroorotate dehydrogenases” (J Med Chem, 2012).

One may read the inhibition as the drop in the measured response relative to a control, in per cent. Read a high inhibition as a response far below the control.

Where a chain is given by its changes, count along the chain named. A value given as a limit tells only on which side of the number the result lay.

For `CCc1cc(O)n2nc(SCc3cc(Cl)ccc3Cl)nc2n1`, the inhibition in assay [1], in assay [2], in assay [5] and in assay [6] was below 50% in each case. Further, the Ratio IC50 amounted to 9 in the assay filed under Homo sapiens [3] and 16 in the assay filed under Homo sapiens [4].
